Experimental data published in patent US6579881B2 (Eisai Co., Ltd., priority 1997, dated 2003).

How the values were obtained:
serotonin 2 receptor = serotonin 2 receptor (Rattus norvegicus, UniProt P14842); assay: Binding test on [3H] ketanserin (serotonin 2 receptor); details: [3H] ketanserin 0.3 nM, receptor fraction of rat cerebral cortex; read-out: 5HT2
α1 adrenalin receptor = assay: Binding test on [3H] prazosin (α1 adrenalin receptor); set-up: species or system rat; details: [3H] prazosin about 0.2 nM, receptor fraction of rat cerebral cortex
serotonin 1A receptor = molecular target: T1, serotonin 1A receptor (Rattus norvegicus, UniProt P19327); assay: Binding test on [3H] 8-hydroxy-dipropylaminotetralin (serotonin 1A receptor); details: [3H] 8-OH-DPAT 0.5 nM, receptor fraction of rat hippocampus; read-out: 5HT1a
T1 construct: To the receptor fraction of the hippocampus were added a test compound and 0.5 nM of [^3H]; 8-hydroxy-dipropylaminotetralin; from tissue; host or cells: SD rat hippocampus, membrane (receptor) fraction
T1 sequence (P19327 1-422): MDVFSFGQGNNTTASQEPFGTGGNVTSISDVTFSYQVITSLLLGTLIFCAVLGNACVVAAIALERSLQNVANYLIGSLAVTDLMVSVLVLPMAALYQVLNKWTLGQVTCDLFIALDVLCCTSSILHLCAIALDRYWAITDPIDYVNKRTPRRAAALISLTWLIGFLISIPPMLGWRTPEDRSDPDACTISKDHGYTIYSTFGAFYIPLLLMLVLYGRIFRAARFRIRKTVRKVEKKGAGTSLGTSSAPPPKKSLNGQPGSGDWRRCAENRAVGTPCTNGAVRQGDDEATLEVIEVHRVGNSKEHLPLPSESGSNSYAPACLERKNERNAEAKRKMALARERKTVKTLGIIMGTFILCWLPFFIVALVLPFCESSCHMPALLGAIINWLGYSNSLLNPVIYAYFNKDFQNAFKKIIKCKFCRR

serotonin 2 receptor, sequence (P14842 whole entry): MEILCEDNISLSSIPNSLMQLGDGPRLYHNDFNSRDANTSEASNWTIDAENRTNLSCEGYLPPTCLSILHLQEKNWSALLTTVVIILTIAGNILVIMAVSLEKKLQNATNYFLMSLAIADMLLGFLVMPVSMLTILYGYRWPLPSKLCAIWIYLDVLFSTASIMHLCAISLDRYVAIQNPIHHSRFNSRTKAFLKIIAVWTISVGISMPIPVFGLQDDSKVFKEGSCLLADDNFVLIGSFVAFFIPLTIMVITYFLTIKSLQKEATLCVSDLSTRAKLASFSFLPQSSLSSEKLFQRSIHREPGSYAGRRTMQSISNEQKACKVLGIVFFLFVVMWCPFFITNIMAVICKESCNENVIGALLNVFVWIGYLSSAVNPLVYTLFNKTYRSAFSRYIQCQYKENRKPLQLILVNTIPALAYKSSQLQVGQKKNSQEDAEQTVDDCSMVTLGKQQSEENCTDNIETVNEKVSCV

Row | Compound | Ki (serotonin 2 receptor) | Ki (α1 adrenalin receptor) | Ki (serotonin 1A receptor) | melting point
1 | CCC(=O)NCc1ccc2ccn(C3CCN(CCc4ccc(F)cc4)CC3)c2c1 [Example 327, 1-[1-(4-fluorophenethyl)piperidin-4-yl]-6-propionylaminomethylindole] | 2.64 nM | 99 nM | 1.04 nM | 141 to 142 °C
2 | O=C(Cc1ccc2ccn(C3CCN(CCc4ccc(F)cc4)CC3)c2c1)NCCF [Example 310, 1-[1-(4-fluorophenethyl)piperidin-4-yl]-6-(2-fluoroethyl)carbamoylmethylindole] | 2.29 nM | 84.4 nM | 1.34 nM | 163.3 to 163.8 °C
3 | CCNC(=O)Cc1ccc2ccn(C3CCN(CCc4ccc(F)cc4)CC3)c2c1 [Example 294, 1-[1-(4-fluorophenethyl)piperidin-4-yl]-6-(ethylcarbamoylmethyl)indole] | 2.86 nM | 80.7 nM | 1.05 nM | 159.6 to 160.1 °C
4 | CC(C)S(=O)(=O)NCc1ccc2ccn(C3CCN(CCc4ccc(F)cc4)CC3)c2c1 [Example 323, 1-[1-(4-fluorophenethyl)piperidin-4-yl]-6-isopropylsulfonamidomethylindole] | > 20 nM | 86.9 nM | 0.14 nM | 90 to 92 °C
5 | COCCNC(=O)Cc1ccc2ccn(C3CCN(CCc4ccc(F)cc4)CC3)c2c1 [Example 309, 1-[1-(4-fluorophenethyl)piperidin-4-yl]-6-(2-methoxyethyl)carbamoylmethylindole] | 1.02 nM | 123 nM | 3.85 nM | 113.2 to 114.4 °C
6 | NC(=O)NCc1ccc2ccn(C3CCN(CCc4ccc(F)cc4)CC3)c2c1 [Example 393, 1-[1-(4-fluorophenethyl)piperidin-4-yl]-6-ureidomethylindole] | 2.54 nM | 37.8 nM | 0.85 nM | 171.9 to 172.8 °C
7 | O=S(=O)(CCCCl)NCc1ccc2ccn(C3CCN(CCc4ccc(F)cc4)CC3)c2c1 [Example 325, 1-[1-(4-fluorophenethyl)piperidin-4-yl]-6-(3-chloropropyl)sulfonamidomethylindole] | 10.9 nM | 47 nM | 0.65 nM | 143 to 145 °C
8 | CC(C)CNC(=O)Cc1ccc2ccn(C3CCN(CCc4ccc(F)cc4)CC3)c2c1 [Example 296, 1-[1-(4-fluorophenethyl)piperidin 4-yl]-6-[N-(isobutylcarbamoyl)methyl]indole] | 2.73 nM | 238 nM | 0.32 nM | 131.8 to 132.2 °C
9 | CNC(=O)Cc1ccc2ccn(C3CCN(CCc4ccccc4F)CC3)c2c1 [Example 342, 1-[1-(2-fluorophenethyl)piperidin-4-yl]-6-methylcarbamoylmethylindole] | 38.1 nM | 25 nM | 0.65 nM | 136.5 to 137.4 °C
10 | O=C(CO)NCc1ccc2ccn(C3CCN(CCc4ccccc4F)CC3)c2c1 [Example 383, 1-[1-(2-fluorophenethyl]piperidin-4-yl]-6-hydroxyacetamidomethylindole] | 1.81 nM | 120 nM | 5.34 nM | 151 to 152 °C
11 | O=C(Cc1ccc2ccn(C3CCN(CCc4ccc(F)cc4)CC3)c2c1)NCCO [Example 300, 1-[1-(4-fluorophenethyl)piperidin-4-yl]-6-(2-hydroxyethyl)carbamoylmethylindole] | 3.55 nM | 225 nM | 1.73 nM | 140 to 141.2 °C
12 | O=C(CO)NCc1ccc2ccn(C3CCN(CCc4ccc(F)cc4)CC3)c2c1 [Example 364, 1-[1-(4-fluorophenethyl)piperidin-4-yl]-6-hydroxyacetamidomethylindole] | 4.23 nM | 289 nM | 1.73 nM | 76 to 78 °C
13 | OCCOc1ccc2ccn(C3CCN(CCc4ccc(F)cc4)CC3)c2c1 [Example 330, 1-[1-(4-fluorophenethyl)piperidin-4-yl]-6-hydroxyethoxyindole] | > 20 nM | 339 nM | 0.11 nM | 118 to 119 °C
